Test results taken from US11160813B2, “Combination therapy for nonalcoholic steatohepatitis (NASH) and liver fibrosis” (Modunex Bio Corp., priority 2016, dated 2021).
“Also recorded” adds a separate entry of the source. Read-outs that look alike come from different tables or passages of the source.

What was measured:
[1] = recent studies; cited from earlier work
mouse model of NASH = mouse model of NASH and fibrosis induced by streptozocin and high fat diet; assay type: in vivo, C59BL/6J mice; conditions: for NAS score: alone or in combination; for liver enzyme AST / liver enzyme ALP: OCA
Experimental: We have utilized a well validated mice model in which the NASH and fibrosis was induced by sequential induction of diabetes mellitus and a high fat diet (14). On day 2, C59BL/6J mice were injected with streptozocin, then treated with high fat diet from week 4 until week 9. The intervention treatment started from week 5 until week 9. On week 9, these mice were euthanized.
NAS scores were determined according to the consensus by Nonalcoholic Steatohepatitis Clinical Research Network (13)
Fibrosis scores were determined according to the consensus by Nonalcoholic Steatohepatitis Clinical Research Network (13).

[2] = HIV patients with HCV infection; cited from earlier work
CCR5 = conditions: animal model; cited from earlier work
[3] = cited from earlier work
[4] = cited from earlier work; for pruritus: placebo 38%
[5] = cited from earlier work; remark: listed apart in the source
[6] = cited from earlier work; remark: listed apart in the source
[7] = FIG. 7B, MK-0812, alone or together

In the case of `CCCCOCCOc1ccc(-c2ccc3c(c2)/C=C(/C(=O)Nc2ccc([S@@+]([O-])Cc4cncn4CCC)cc2)CCCN3CC(C)C)cc1` [cenicriviroc], the “effect on NASH” value [1] is given as “marginal effect on NASH” and the effect on fibrosis [1] is given as “relatively more significant effect on fibrosis”.

For maraviroc [MVC], the NAS score (mouse model of NASH; FIG. 1A, maraviroc 45 mg/kg once daily orally, OCA 30 mg/kg once daily, 4 wks) was “modest reduction of NAS scores”, the NAS score (mouse model of NASH; FIG. 1A, maraviroc 45 mg/kg once daily orally, OCA 30 mg/kg once daily, 4 wks, listed as maravoric) was “limited effect on the NAS score” and the “fibrosis evidenced by staining of collagen (liver histology)” value (“fibrosis evidenced … (liver histology)” below) (mouse model of NASH; FIG. 2A, maraviroc 45 mg/kg, OCA 30 mg/kg once daily, 4 wks) was “reduction of fibrosis”. The “fibrosis evidenced … (liver histology)” value (mouse model of NASH; FIG. 2A, maraviroc 45 mg/kg, OCA 30 mg/kg once daily, 4 wks, listed as maraviroc) was “effective in reducing fibrosis; also recorded: more effective than OCA in reducing fibrosis”, the fibrosis score (mouse model of NASH; FIG. 3A, maraviroc 45 mg/kg, OCA 30 mg/kg once daily, 4 wks) was “reduction of fibrosis score” and the liver inflammation (mouse model of NASH; FIG. 4A, maraviroc 45 mg/kg, OCA 30 mg/kg once daily, 4 wks) was “reduction of liver inflammation”. For the same compound, the hepatocyte ballooning score (mouse model of NASH; FIG. 5A, maraviroc 45 mg/kg, OCA 30 mg/kg once daily, 4 wks) was “reduction of the hepatocyte ballooning score”, the steatosis (mouse model of NASH; FIG. 6A, maraviroc 45 mg/kg, OCA 30 mg/kg once daily, 4 wks) was “marginal effect on steatosis” and the liver fibrosis [2] was “Reducing liver fibrosis has been observed”. For the same compound, the “NAS score and fibrosis” value (CCR5) was “effective in an animal model for reducing NAS score and fibrosis”.

In the case of `CC[C@H]1[C@@H](O)[C@@H]2[C@H](CC[C@]3(C)[C@@H]([C@H](C)CCC(=O)O)CC[C@@H]23)[C@@]2(C)CC[C@@H](O)C[C@@H]12` [OCA, 6 α-ethyl-chemodeoxycholic acid], the “exposure-adjusted incidence for all serious and otherwise clinically significant liver-related adverse reactions and isolated elevations in liver biochemical test” value ([3]; 10 mg group, placebo 2.4) is listed as 5.2 per 100 patient exposure years (PEY), the “exposure-adjusted incidence for all serious and otherwise clinically significant liver-related adverse reactions and isolated elevations in liver biochemical test” value ([3]; 25 mg group) is listed as 19.8% and the “exposure-adjusted incidence for all serious and otherwise clinically significant liver-related adverse reactions and isolated elevations in liver biochemical test” value ([3]; 50 mg group) is listed as 54.5%. The “liver enzyme AST” value (mouse model of NASH; FIG. 7A, MVC, alone or together) was “elevation in AST and ALP liver enzymes; also recorded: elevation of the liver enzyme AST”, the “liver enzyme AST” value (mouse model of NASH; [7]) was “elevation of the liver enzyme AST” and the “liver enzyme ALP” value (mouse model of NASH; FIG. 8A, MVC, alone or together) was “elevation in AST and ALP liver enzymes; also recorded: elevation of the liver enzyme ALP”. For the same compound, the “liver enzyme ALP” value (mouse model of NASH; FIG. 8B, MK-0812) was “elevation of the liver enzyme ALP”, the pruritus ([4]; 10 mg once daily) was 56% and the HDL ([4]; dose related) was “dose related reduction in HDL; also recorded: reduction of HDL”. For the same compound, the severe pruritus ([4]; patients receiving OCA) was 19-23%, the frequency of pruritus ([4]; reported frequency) was “up to 80%” and the pruritus ([4]; titration regimen) was 70%. The ALT levels ([5]; 9-month oral, dogs) was “elevated ALT levels”, the “clinical signs of toxicity that could be associated with liver function” value ([5]; dog, in vivo, po) was “yellow discoloration of skin, mucous membrane, and eyes” and the bile duct histology ([6]; 26-week oral, rats) was “bile duct hyperplasia”. The clinical chemistry parameters ([6]; 26-week oral, rats) was “increases in ALT, AST and ALP”, the liver weight ([6]; 26-week oral, rats) was “increased liver weight” and the “safety margin relative to recommended human dose” value ([6]; rat, in vivo) was 2.3 fold.

In the case of `CO[C@@H]1COCC[C@@H]1N[C@@H]1CC[C@@](C(=O)N2CCc3ncc(C(F)(F)F)cc3C2)(C(C)C)C1` [MK-0812], the NAS score (mouse model of NASH; FIG. 1B, OCA and MK-0812 (10 mg twice daily)) is reported as “modest reduction of NAS scores; also recorded: little effect”, the “fibrosis evidenced … (liver histology)” value (mouse model of NASH; FIG. 2B, OCA and MK-0812) is reported as “reduction of fibrosis” and the “results in the NASH model when a CCR2 antagonist was used instead of MVC” value (mouse model of NASH; FIG. 3B to 7B) is reported as “Comparable results”. For the same compound, the fibrosis score (mouse model of NASH; FIG. 3B, OCA and MK-0812, combination with half dose OCA and MK-0812 10 mg twice daily) was “reduction of fibrosis score”, the liver inflammation (mouse model of NASH; FIG. 4B, OCA and MK-0812) was “reduction of liver inflammation” and the hepatocyte ballooning score (mouse model of NASH; FIG. 5B, OCA and MK-0812) was “reduction of hepatocyte ballooning score”. The steatosis (mouse model of NASH; FIG. 6B, full dose OCA, MK-0812 alone) was “no apparent effect on steatosis” and the “liver enzyme AST” value (mouse model of NASH; [7]) was “not observed”.
